Laboratory results published in paper PMC10504260, “Identification of a c-type heme oxygenase and its function during acclimation of cyanobacteria to nitrogen fluctuations” (Communications Biology, 2023).

Tests used:
Ssr1698 (cHO) [1] = biological target: T1, Ssr1698 (cHO) (Synechocystis sp. PCC 6803, UniProt P73129); assay: UV-visible assay of MP-11 (c-type heme) degradation with added biliverdin IXα; assay type: biochemical; conditions: product inhibition; substrate MP-11, ascorbate, catalase, PBS pH 7.4
T1 construct: full-length 96-residue protein; GST fusion from pGEX-5X-1 (BamHI/XhoI) in E. coli BL21(DE3) pLysS, GST tag removed by Factor Xa, SEC; dimer
T1 sequence (P73129 1-96): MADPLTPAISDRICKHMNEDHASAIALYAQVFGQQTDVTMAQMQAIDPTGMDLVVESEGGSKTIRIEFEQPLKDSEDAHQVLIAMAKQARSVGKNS

Ssr1698 (cHO) [2] = biological target: T1, Ssr1698 (cHO); assay: HPLC and LC-MS of reaction product; assay type: biochemical; conditions: substrate MP-11 (c-type heme), 10 mM ascorbic acid, 2 µM catalase, PBS pH 7.4, 2 h
[3] = biological target: Ssr1698 (c-type heme oxygenase, cHO), purified tag-less apo-Ssr1698 (Synechocystis sp. strain PCC 6803); assay: SEC; Superdex 200 Increase 10/300GL equilibrated with PBS buffer (pH 7.4); tag-less Ssr1698 after removal of GST by Factor Xa
[4] = biological target: Ssr1698 (c-type heme oxygenase, cHO), purified tag-less apo-Ssr1698 (Synechocystis sp. strain PCC 6803); assay: native gel or EMSA; clear native-PAGE (CN-PAGE) of purified tag-less Ssr1698; 5-12.5% acrylamide gradient gel, 0.01% DM and 0.025% deoxycholate in the cathode buffer, 4 °C

stoichiometry N [3] | stoichiometry N [4] | Compound | suppression of c-type heme degradation (Ssr1698 (cHO) [1]) | HPLC and LC-MS of reaction product (Ssr1698 (cHO) [2])
– | – | C=CC1=C(C)C(=Cc2[nH]c(C=C3N=C(C=C4NC(=O)C(C)=C4C=C)C(C)=C3CCC(=O)O)c(CCC(=O)O)c2C)NC1=O [biliverdin IXα] | degradation of c-type heme is significantly suppressed after the addition of biliverdin IXα | biliverdin IXα molecule, 11-amino acid peptide and free iron were identified in the reaction product
2 | 2 | Ssr1698 (c-type heme oxygenase, cHO), purified tag-less apo-Ssr1698 (enzyme) | – | –
